From patent US10421723B2, “2,3-diacylated, 2- and 3-mono-acylated alkylated imino sugars exhibiting glucosidase inhibition and their method of use” (priority 2016, dated 2019)

How the values were obtained:
[1] = Stability and conversion in simulated gastric fluid; format: in vitro ADME; details: 4 h, 37° C.
Procedure: The stability of exemplary compounds of the present invention and their conversion to their active derivatives in simulated gastric fluid is evaluated. The working solutions of test compounds and control compound erythromycin were prepared in DMSO at the concentration of 500 μM. 2 μL of the working solution and 198 μL of simulated gastric fluids were added into centrifuge tubes to achieve a final concentration of […] incubated at 37° C. water bath with shaking at approximately 60 rpm. One of the centrifuge tubes was taken at designated time points including 0, 30, 60, 90 and 120 minutes. The assay was performed in duplicate. The reaction was stopped by adding 5 volumes of cold quench solution (acetonitrile containing internal standards (IS, 100 nM Alprazolam, 500 nM Labetalol and 2 μM Ketoprofen)) to the spiked simulated gastric fluids samples at the appointed time points. Another time 0 samples of parent compound were also prepared, and they were used to calculate the conversion percentages of prodrugs to parent compound (used as T0-2). Samples were vortexed for 2 minutes and centrifuged at 20,000 g for 15 minutes at 4° C. to precipitate protein. And then 50 μL of the supernatant was transferred to a new 96-well plate with 100 μL quench solution and 100 μL water for LC-MS/MS analysis.

[2] = Stability and conversion in simulated intestinal fluids; format: in vitro ADME; details: 4 h, 5 μM, 37° C.
Procedure: The stability of exemplary compounds of the present invention and their conversion to active derivatives in simulated intestinal fluids is evaluated. The working solutions of test compounds and control compound chlorambucil were prepared in DMSO at the concentration of 500 μM. 2 μL of the working solution and 198 μL of simulated intestinal fluids were added into centrifuge tubes to achieve a final concentration of 5 μM, and incubated at 37° C. water bath with shaking at approximately 60 rpm. One of the centrifuge tubes was taken at designated time points including 0, 1, 2, 3 and 4 hours. The assay was performed in duplicate. The reaction was stopped by adding 5 volumes of cold quench solution (acetonitrile containing internal standards (IS, 100 nM Alprazolam, 500 nM Labetalol and 2 μM Ketoprofen)) to the spiked simulated intestinal fluids samples at the appointed time points. Another time 0 samples of parent compound were also prepared, and they were used to calculate the conversion percentages of prodrugs to parent compound (used as T0-2). Samples were vortexed for 2 minutes and centrifuged at 20,000 g for 15 minutes at 4° C. to precipitate protein. And then 50 μL of the supernatant was transferred to a new 96-well plate with 100 μL quench solution and 100 μL water for LC-MS/MS analysis.

[3] = test system: target viruses; details: cited from earlier work

Structure (SMILES)	Stability in Gastric fluids, Remaining [1] [%]	Stability in Intestinal Fluid, Remaining [2] [%]	concentrations to achieve EC50 values in tissue culture against their target viruses [3]
CC(C)COC(=O)OC1CN(CCCCCCN(C(=O)NC(C)(C)C)C2CCCCC2)C(CO)C(O)C1O (stereo not shown) [XXVIII(b)]	89.2	70.9	–
CCCCN1C[C@H](O)[C@@H](O)[C@H](O)[C@H]1CO [NBDNJ, N-butyl-DNJ]	–	–	near millimolar
CC(NC(=O)OC(C)(C)C)C(=O)OC1C(O)CN(CCCCCCN(C(=O)NC(C)(C)C)C2CCCCC2)C(CO)C1O (stereo not shown) [XXX(a)]	81.1	30.7	–
CCCCOC(=O)OC1CN(CCCCCCN(C(=O)NC(C)(C)C)C2CCCCC2)C(CO)C(O)C1O (stereo not shown) [XXVIII(a)]	98.1	62.7	–
CCCC(=O)O[C@H]1CN2CC[C@H](O)[C@@H]2[C@@H](O)[C@@H]1O [Celgosivir]	–	–	near millimolar
CCCCOC(=O)OC1CN(CCCCCCN(C(=O)NC(C)(C)C)C2CCCCC2)C(CO)C(O)C1OC(=O)OCCCC (stereo not shown) [XXVII(a)]	93	65.7	–
